Reference: publication PMC6536496, “Modulation of antibiotic sensitivity and biofilm formation in Pseudomonas aeruginosa by interspecies signal analogues” (Nature Communications, 2019)

Biological target: T1, PA1396 (Pseudomonas aeruginosa, UniProt Q9I3U8)
T1 construct: reporter rows: PA1396 in P. aeruginosa cells
Test: auto-phosphorylation in liposomes, […] SDS-PAGE
Format: biochemical
Settings: 10 mM MgCl2, 1 mM DTT, room temperature, 10 min

T1 sequence (Q9I3U8 entry or part of it): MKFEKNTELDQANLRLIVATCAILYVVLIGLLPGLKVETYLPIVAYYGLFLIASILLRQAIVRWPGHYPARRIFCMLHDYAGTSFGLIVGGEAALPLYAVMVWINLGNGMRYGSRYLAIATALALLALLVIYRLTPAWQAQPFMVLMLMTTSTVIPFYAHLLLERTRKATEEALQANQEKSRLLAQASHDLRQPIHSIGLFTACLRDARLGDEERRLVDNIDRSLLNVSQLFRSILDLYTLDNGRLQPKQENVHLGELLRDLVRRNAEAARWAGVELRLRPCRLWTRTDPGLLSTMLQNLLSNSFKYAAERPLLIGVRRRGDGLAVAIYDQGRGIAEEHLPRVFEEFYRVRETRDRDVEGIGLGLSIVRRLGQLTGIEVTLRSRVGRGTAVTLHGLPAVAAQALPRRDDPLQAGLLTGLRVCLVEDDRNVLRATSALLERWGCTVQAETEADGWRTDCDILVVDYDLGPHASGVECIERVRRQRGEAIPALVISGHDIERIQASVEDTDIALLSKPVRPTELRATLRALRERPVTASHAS

Structure (SMILES) | auto-phosphorylation in liposomes, 32P SDS-PAGE (antagonist against 10 µM DSF) | auto-phosphorylation in liposomes, 32P SDS-PAGE (agonist, 10 µM)
CC(C)CCCCCCC/C=C\C(=O)NS(C)(=O)=O [C23, (Z)-11-methyl-N-(methylsulfonyl)dodec-2-enamide] | C23 blocks the recognition of DSF by PA1396 | –
CC(C)CCCCCCC/C=C\C(=O)O [C1, cis-11-methyl-2-dodecenoic acid] | – | addition of DSF to PA1396-loaded liposomes led to a robust increase in the level
